Data as given in patent US8354436B2 (4SC Discovery GmbH, priority 2011, dated 2013).
Where two headings read alike, the source gives them in different places.

What was measured:
Assay type in all cases: cell-based
[1] = tested on: PBMC from healthy human donors; experiment: T cell proliferation assay (PHA-stimulated human PBMC, BrdU ELISA); settings: 48 hours
Outline: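 Healthy-donor PBMC isolated on Ficoll, seeded at 1×10⁵ cells/well in RPMI with 10% dialysed FCS, stimulated with 2 μg/ml PHA in presence of test compound. Proliferation read after 48 hours by BrdU-incorporation ELISA.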

IFN-γ = IFN-γ production by PHA-stimulated human PBMC (OptEIA human IFN-g ELISA); settings: 48 hours
Outline: (§1)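 Compounds are titrated semilogarithmically for IC50, or tested at 10, 1, 0.1 and 0.01 μM for screening, on healthy-donor PBMC activated with 2 μg/ml PHA. After 48 h, secreted cytokine is measured in supernatant.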

IL-17AA = IL-17AA production by PHA-stimulated human PBMC (human homodimer IL-17A ELISA); settings: 48 hours
Protocol: (§2) Analysis of Proliferation of and Cytokine Production by Human PBMC Stimulated with PHA
(§3) Peripheral blood mononuclear cells (PBMC) from healthy human donors were purified using Accuspin™ System-Histopaque-1077 (Sigma) according to the protocol recommended by the manufacturer. Purified PBMC were then washed twice with phosphate-buffered saline (PBS) and resuspended in RPMI1640 culture medium supplemented with 10% dialyzed heat inactivated fetal calf serum, 1.5 mM L-glutamine, 100 U penicillin/ml, and […] (all from PAN Biotech, Aidenbach, Germany). For stimulation, PBMC were seeded at 1×10^5 cells/well, activated with 2 μg/ml phytohaemagglutinin (PHA, Sigma) and incubated with the test compounds for 48 hours. IL-17A, IL-17F and INF-γ were then determined in the culture supernatant using a Luminex BioPlex system, following the manufacturer's instructions (BioRad, Munich, Germany). For screening, compounds were used at 10, 1, 0.1 and 0.01 μM. To determine the IC50, compounds were titrated semilogarithmically.
(§4) Cytokines were determined in the aforementioned culture supernatant using the following methods: IL-17AA/AF was measured using the Luminex BioPlex system (BioRad, Munich, Germany); IL-17AA using the human homodimer IL-17A ELISA Ready Set Go Kit from eBioscience (Frankfurt, Germany); IL-17FF using the human IL-17F ELI-Pair from Hölzel DiagnosticaGmBH (Köln, Germany); and IFN-γ using the OptEIA human IFN-g ELISA from BD Bioscience (Heidelberg, Germany), all following the manufacturer's instructions.

IL-17FF = IL-17FF production by PHA-stimulated human PBMC (human IL-17F ELI-Pair); settings: 48 hours
Outline: as §1

IL-17AA/AF = IL-17AA/AF production by PHA-stimulated human PBMC (Luminex BioPlex assay); settings: 48 hours, column A, values marked with *, read-out: IC50 (IL-17AA), values marked with * determined by Luminex assay on IL17AA/AF
Protocol: as §2, §3, §4

[2] = human PBMC, 2 μg/ml PHA, read-out: D: IC50 (Tcell proliferation)
[3] = human PBMC, 2 μg/ml PHA, read-out: C: IC50 (IFNγ)
[4] = human PBMC, 2 μg/ml PHA, read-out: A: IC50 (IL-17AA)
[5] = human PBMC, 2 μg/ml PHA, read-out: B: IC50 (IL-17FF)
[6] = PHA-stimulated human PBMC, column D, read-out: IC50 (Tcell proliferation)
[7] = PHA-stimulated human PBMC, column C, read-out: IC50 (IFNγ)
[8] = PHA-stimulated human PBMC, column B, read-out: IC50 (IL-17FF)
[9] = PHA-stimulated human PBMC, column A, values without *, read-out: IC50 (IL-17AA)

| IC50 (IFN-γ; [3]) [µM] | IC50 (IL-17AA; [4]) [µM] | IC50 (IL-17FF; [5]) [µM] | IC50 (IL-17AA/AF) [µM] | IC50 (IFN-γ; [7]) [µM] | IC50 (IL-17FF; [8]) [µM] | IC50 (IL-17AA; [9]) [µM] | Structure (SMILES) | IC50 [1, 2] [µM] | IC50 [1, 6] [µM] |
| --- | --- | --- | --- | --- | --- | --- | --- | --- | --- |
| < 0.01 | < 0.01 | < 0.01 | – | – | – | – | Fc1cccc(Cl)c1-c1noc(-c2cnn(-c3cccc(Cl)c3)c2C(F)(F)F)c1-c1nccs1 [Example 5, 3-(2-chloro-6-fluorophenyl)-5-(1-(3-chlorophenyl)-5-(trifluoromethyl)-1H-pyrazol-4-yl)-4-(thiazol-2-yl)isoxazole] | < 0.01 | – |
| 0.01 to 0.1 | 1 to 10 | 0.1 to 1 | – | – | – | – | Cc1nnc(-c2c(-c3c(F)cccc3Cl)noc2-c2cnn(-c3ccccc3F)c2C(F)(F)F)o1 [Example 11, 2-(3-(2-chloro-6-fluorophenyl)-5-(1-(2-fluorophenyl)-5-(trifluoromethyl)-1H-pyrazol-4-yl)isoxazol-4-yl)-5-methyl-1,3,4-oxadiazole] | 0.1 to 1 | – |
| 0.01 to 0.1 | 0.1 to 1 | 0.01 to 0.1 | – | – | – | – | Cc1nnc(-c2c(-c3c(F)cccc3Cl)noc2-c2cnn(-c3ccccc3F)c2C(F)(F)F)s1 [Example 12, 3-(2-chloro-6-fluorophenyl)-5-(1-(2-fluorophenyl)-5-(trifluoromethyl)-1H-pyrazol-4-yl)-4-(5-methyl-1,3,4-thiadiazol-2-yl)isoxazole] | 0.1 to 1 | – |
| 1 to 10 | 1 to 10 | 0.1 to 1 | – | – | – | – | Fc1cccc(-n2ncc(-c3onc(-c4c(F)cccc4Cl)c3-c3ccoc3)c2C(F)(F)F)c1 [Example 13, 3-(2-chloro-6-fluorophenyl)-5-(1-(3-fluorophenyl)-5-(trifluoromethyl)-1H-pyrazol-4-yl)-4-(furan-3-yl)isoxazole] | 1 to 10 | – |
| 0.01 to 0.1 | 0.1 to 1 | 0.01 to 0.1 | – | – | – | – | COC(=O)c1csc(-c2c(-c3c(F)cccc3Cl)noc2-c2cnn(-c3cccc(F)c3)c2C(F)(F)F)n1 [Example B-2, methyl 2-(3-(2-chloro-6-fluorophenyl)-5-(1-(3-fluorophenyl)-5-(trifluoromethyl)-1H-pyrazol-4-yl)isoxazol-4-yl)thiazole-4-carboxylate] | 0.1 to 1 | – |
| 0.1 to 1 | 0.1 to 1 | 0.01 to 0.1 | – | – | – | – | Fc1ccccc1-n1ncc(-c2onc(-c3c(F)cccc3Cl)c2-c2ccoc2)c1C(F)(F)F [Example B-9, 3-(2-chloro-6-fluorophenyl)-5-(1-(2-fluorophenyl)-5-(trifluoromethyl)-1H-pyrazol-4-yl)-4-(furan-3-yl)isoxazole] | 0.1 to 1 | – |
| – | – | – | < 0.01 | < 0.01 | < 0.01 | – | COC(=O)c1c(-c2c(F)cccc2Cl)noc1-c1cnn(-c2cccc(F)c2)c1C(F)(F)F [Example I-5, methyl 3-(2-chloro-6-fluorophenyl)-5-(1-(3-fluorophenyl)-5-(trifluoromethyl)-1H-pyrazol-4-yl)isoxazole-4-carboxylate] | – | < 0.01 |
| – | – | – | – | < 0.01 | < 0.01 | < 0.01 | COC(=O)c1c(-c2c(F)cccc2Cl)noc1-c1cnn(-c2cccc(Cl)c2)c1C(F)(F)F [Example I-11, methyl 3-(2-chloro-6-fluorophenyl)-5-(1-(3-chlorophenyl)-5-(trifluoromethyl)-1H-pyrazol-4-yl)isoxazole-4-carboxylate] | – | < 0.01 |
| – | – | – | – | 0.01 to 0.1 | 0.01 to 0.1 | 0.1 to 1 | COC(=O)c1c(-c2c(F)cccc2Cl)noc1-c1cnn(-c2cccc(C#N)c2)c1C(F)(F)F [Example I-12, methyl 3-(2-chloro-6-fluorophenyl)-5-(1-(3-cyanophenyl)-5-(trifluoromethyl)-1H-pyrazol-4-yl)isoxazole-4-carboxylate] | – | 0.01 to 0.1 |
| – | – | – | – | 0.1 to 1 | 0.1 to 1 | 1 to 10 | O=C(NC1CCCCC1)c1c(-c2c(F)cccc2Cl)noc1-c1cnn(-c2ccccc2F)c1C(F)(F)F [Example I-18, 3-(2-chloro-6-fluorophenyl)-N-cyclohexyl-5-(1-(2-fluorophenyl)-5-(trifluoromethyl)-1H-pyrazol-4-yl)isoxazole-4-carboxamide] | – | 1 to 10 |
| – | – | – | – | 1 to 10 | 1 to 10 | 1 to 10 | CNC(=O)c1c(-c2c(F)cccc2Cl)noc1-c1cnn(-c2ccccc2F)c1C(F)(F)F [Example I-19, 3-(2-chloro-6-fluorophenyl)-5-(1-(2-fluorophenyl)-5-(trifluoromethyl)-1H-pyrazol-4-yl)-N-methylisoxazole-4-carboxamide] | – | 1 to 10 |
| – | – | – | – | 0.1 to 1 | 0.01 to 0.1 | 0.1 to 1 | CNC(=O)c1c(-c2c(F)cccc2Cl)noc1-c1cnn(-c2cccc(Cl)c2)c1C(F)(F)F [Example I-32, 3-(2-chloro-6-fluorophenyl)-5-(1-(3-chlorophenyl)-5-(trifluoromethyl)-1H-pyrazol-4-yl)-N-methylisoxazole-4-carboxamide] | – | 0.01 to 0.1 |
| – | – | – | – | 0.01 to 0.1 | 0.01 to 0.1 | 0.1 to 1 | COC(=O)c1c(-c2c(F)cccc2Cl)noc1-c1cnn(-c2ccccc2)c1C(F)(F)F [Example I-48, methyl 3-(2-chloro-6-fluorophenyl)-5-(1-phenyl-5-(trifluomethyl)1H-pyrazol-4-yl)isoxazole-4-carboxylate] | – | 0.01 to 0.1 |
| – | – | – | – | 1 to 10 | 1 to 10 | 1 to 10 | CNC(=O)c1c(-c2c(F)cccc2Cl)noc1-c1cnn(-c2ccc(F)cc2F)c1C(F)(F)F [Example I-57, 3-(2-chloro-6-fluorophenyl)-5-(1-(2,4-difluorophenyl)-5-(trifluoromethyl)-1H-pyrazol-4-yl)-N-methylisoxazole-4-carboxamide] | – | 1 to 10 |
| – | – | – | 0.1 to 1 | 0.01 to 0.1 | 0.01 to 0.1 | – | CNC(=O)c1c(-c2c(F)cccc2Cl)noc1-c1cnn(-c2cccc(F)c2)c1C(F)(F)F [Example I-62, 3-(2-chloro-6-fluorophenyl)-5-(1-(3-fluorophenyl)-5-(trifluoromethyl)-1H-pyrazol-4-yl)-N-methylisoxazole-4-carboxamide] | – | 0.01 to 0.1 |
| – | – | – | – | 0.1 to 1 | 0.01 to 0.1 | 0.1 to 1 | CON(C)C(=O)c1c(-c2c(F)cccc2Cl)noc1-c1cnn(-c2cccc(Cl)c2)c1C(F)(F)F [Example I-63, 3-(2-chloro-6-fluorophenyl)-5-(1-(3-chlorophenyl)-5-(trifluoromethyl)-1H-pyrazol-4-yl)-N-methoxy-N-methylisoxazole-4-carboxamide] | – | 0.1 to 1 |
| – | – | – | 0.01 to 0.1 | < 0.01 | < 0.01 | – | CSC(=O)c1c(-c2c(F)cccc2Cl)noc1-c1cnn(-c2cccc(Cl)c2)c1C(F)(F)F [Example I-126, S-methyl 3-(2-chloro-6-fluorophenyl)-5-(1-(3-chlorophenyl)-5-(trifluoromethyl)-1H-pyrazol-4-yl)isoxazole-4-carbothioate] | – | < 0.01 |
| – | – | – | < 0.01 | < 0.01 | < 0.01 | – | CSC(=O)c1c(-c2c(F)cccc2Cl)noc1-c1cnn(-c2cccc(F)c2)c1C(F)(F)F [Example I-128, S-methyl 3-(2-chloro-6-fluorophenyl)-5-(1-(3-fluorophenyl)-5-(trifluoromethyl)-1H-pyrazol-4-yl)isoxazole-4-carbothioate] | – | < 0.01 |
| – | – | – | – | 0.01 to 0.1 | 0.01 to 0.1 | 0.01 to 0.1 | CCOC(=O)c1c(-c2c(F)cccc2Cl)noc1-c1cnn(-c2cccc(NC(C)=O)c2)c1C(F)(F)F [IB-70, ethyl 5-(1-(3-acetamidophenyl)-5-(trifluoromethyl)-1H-pyrazol-4-yl)-3-(2-chloro-6-fluorophenyl)isoxazole-4-carboxylate] | – | 0.01 to 0.1 |
